Measured values reported in patent US20250324971A1, “HERBICIDAL DERIVATIVES” (SYNGENTA CROP PROTECTION AG, priority 2022, published 2025).

Key:
Assay type in all cases: in vivo
Zea mays (ZEAMX) [1] = assay: Pre-Emergence Test (herbicidal, glasshouse pots); settings: evaluated after 13 days, five-point scale
[2] = test system: Amaranthus retoflexus (AMARE); assay: Pre-Emergence Test (herbicidal, glasshouse pots); settings: evaluated after 13 days, five-point scale
[3] = test system: Amaranthus palmeri (AMAPA); assay: Pre-Emergence Test (herbicidal, glasshouse pots); settings: evaluated after 13 days, five-point scale
Setaria faberi (SETFA) [4] = assay: Pre-Emergence Test (herbicidal, glasshouse pots); settings: evaluated after 13 days, five-point scale
[5] = test system: Echinochloa crus-galli (ECHCG); assay: Pre-Emergence Test (herbicidal, glasshouse pots); settings: evaluated after 13 days, five-point scale
[6] = test system: Ipomoea hederacea (IPOHE); assay: Pre-Emergence Test (herbicidal, glasshouse pots); settings: evaluated after 13 days, five-point scale
[7] = test system: Echinochloa crus-galli (ECHCG); assay: Post-Emergence Test (herbicidal, glasshouse pots); settings: evaluated after 13 days
Protocol: (§1) Seeds of a variety of test species are sown in standard soil in pots (Setaria faberi (SETFA), Ipomoea hederacea (IPOHE), Echinochloa crus-galli (ECHCG), (Amaranthus retoflexus (AMARE), Zea mays (ZEAMX), and Amaranthus palmeri (AMAPA)). After 8 days cultivation under controlled conditions in a glasshouse (at 24° C./16° C., day/night; 14 hours light; 65% humidity), the plants arm sprayed with an aqueous spray solution derived from the formulation of the technical active ingredient in acetone/water (50:50) solution containing 0.5% Tween 20 (polyoxyethylene sorbitan monolaurate, CAS RN 9005-84-5). Rate of application is shown in g/ha in the tables below. The test plants are then grown in a glasshouse under controlled conditions in a glasshouse (at 24° C./16° C., day/night; 14 hours light; 65% humidity) and watered twice daily. After 13 days the test is evaluated for the percentage damage caused to the plant. The biological activities are shown in the following table on a five-point scale (5=81-100%; 4=61-80%; 3=41-60%; 2=21-40%; 1=0-20%; -=not tested).

Setaria faberi (SETFA) [8] = assay: Post-Emergence Test (herbicidal, glasshouse pots); settings: evaluated after 13 days
Protocol: as §1

[9] = test system: Ipomoea hederacea (IPOHE); assay: Post-Emergence Test (herbicidal, glasshouse pots); settings: evaluated after 13 days
Protocol: as §1

[10] = test system: Amaranthus retoflexus (AMARE); assay: Post-Emergence Test (herbicidal, glasshouse pots); settings: evaluated after 13 days
Protocol: as §1

[11] = test system: Amaranthus palmeri (AMAPA); assay: Post-Emergence Test (herbicidal, glasshouse pots); settings: evaluated after 13 days
Protocol: as §1

Zea mays (ZEAMX) [12] = assay: Post-Emergence Test (herbicidal, glasshouse pots); settings: evaluated after 13 days
Protocol: as §1

| Compound | percentage damage caused to the plant, ZEAMX (Zea mays (ZEAMX) [1]; rate 1000 g/ha) | percentage damage caused to the plant, AMARE ([2]; rate 1000 g/ha) | percentage damage caused to the plant, AMAPA ([3]; rate 1000 g/ha) | percentage damage caused to the plant, SETFA (Setaria faberi (SETFA) [4]; rate 1000 g/ha) | percentage damage caused to the plant, ECHCG ([5]; rate 1000 g/ha) | percentage damage caused to the plant, IPHOE ([6]; rate 1000 g/ha) | Post-Emergence Test ECHCG percentage damage (five-point scale) ([7]; rate 1000 g/ha) | Post-Emergence Test SETFA percentage damage (five-point scale) (Setaria faberi (SETFA) [8]; rate 1000 g/ha) | Post-Emergence Test IPHOE percentage damage (five-point scale) ([9]; rate 1000 g/ha) | Post-Emergence Test AMARE percentage damage (five-point scale) ([10]; rate 1000 g/ha) | Post-Emergence Test AMAPA percentage damage (five-point scale) ([11]; rate 1000 g/ha) | Post-Emergence Test ZEAMX percentage damage (five-point scale) (Zea mays (ZEAMX) [12]; rate 1000 g/ha) | other results |
| --- | --- | --- | --- | --- | --- | --- | --- | --- | --- | --- | --- | --- | --- |
| CCn1c(Oc2ccccc2F)cc(=O)c(C(=O)O)c1-c1ccc(Cl)c(Cl)c1 [Compound 3, 2-(3,4-dichlorophenyl)-1-ethyl-6-(2-fluorophenoxy)-4-oxo-pyridine-3-carboxylic acid] | 2 (2=21-40%) | 2 (2=21-40%) | 1 (1=0-20%) | 5 (5=81-100%) | 4 (4=61-80%) | 4 (4=61-80%) | 4 (4=61-80%) | 4 (4=61-80%) | 3 (3=41-60%) | 3 (3=41-60%) | 2 (2=21-40%) | 2 (2=21-40%) | – |
| CCn1c(Oc2ccc(F)cc2)cc(=O)c(C(=O)O)c1-c1ccc(Cl)c(Cl)c1 [Compound 4, 2-(3,4-dichlorophenyl)-1-ethyl-6-(4-fluorophenoxy)-4-oxo-pyridine-3-carboxylic acid] | 3 (3=41-60%) | 3 (3=41-60%) | 3 (3=41-60%) | 5 (5=81-100%) | 5 (5=81-100%) | 4 (4=61-80%) | 4 (4=61-80%) | 4 (4=61-80%) | 3 (3=41-60%) | 4 (4=61-80%) | 4 (4=61-80%) | 3 (3=41-60%) | – |
| CCn1c(Oc2ccc(OC(F)(F)F)cc2)cc(=O)c(C(=O)O)c1-c1ccc(Cl)c(Cl)c1 [Compound 20, 2-(3,4-dichlorophenyl)-1-ethyl-4-oxo-6-[4-(trifluoromethoxy)phenoxy]pyridine-3-carboxylic acid] | 3 (3=41-60%) | 4 (4=61-80%) | 4 (4=61-80%) | 5 (5=81-100%) | 5 (5=81-100%) | 2 (2=21-40%) | 4 (4=61-80%) | 5 (5=81-100%) | 3 (3=41-60%) | 4 (4=61-80%) | 3 (3=41-60%) | 3 (3=41-60%) | – |
| CCn1c(Oc2ccc(OC)c(OC)c2)cc(=O)c(C(=O)O)c1-c1ccc(Cl)c(Cl)c1 [Compound 21, 2-(3,4-dichlorophenyl)-6-(3,4-dimethoxyphenoxy)-1-ethyl-4-oxo-pyridine-3-carboxylic acid] | 1 (1=0-20%) | 1 (1=0-20%) | 1 (1=0-20%) | 4 (4=61-80%) | 2 (2=21-40%) | 3 (3=41-60%) | 1 (1=0-20%) | 5 (5=81-100%) | 3 (3=41-60%) | 4 (4=61-80%) | 3 (3=41-60%) | 1 (1=0-20%) | – |
| CCn1c(Oc2ccc(C(F)(F)F)cc2)cc(=O)c(C(=O)O)c1-c1ccc(Cl)c(Cl)c1 [Compound 27, 2-(3,4-dichlorophenyl)-1-ethyl-4-oxo-6-[4-(trifluoromethyl)phenoxy]pyridine-3-carboxylic acid] | – | – | – | – | – | – | – | – | – | – | – | – | percentage damage caused to the plant, ZEAMX (Zea mays (ZEAMX) [1]; rate 250 g/ha): 0; percentage damage caused to the plant, AMARE ([2]; rate 250 g/ha): 1 (1=0-20%); percentage damage caused to the plant, AMAPA ([3]; rate 250 g/ha): 1 (1=0-20%); percentage damage caused to the plant, SETFA (Setaria faberi (SETFA) [4]; rate 250 g/ha): 4 (4=61-80%); percentage damage caused to the plant, ECHCG ([5]; rate 250 g/ha): 1 (1=0-20%); percentage damage caused to the plant, IPHOE ([6]; rate 250 g/ha): 0; Post-Emergence Test ECHCG percentage damage (five-point scale) ([7]; rate 250 g/ha): 4 (4=61-80%); Post-Emergence Test SETFA percentage damage (five-point scale) (Setaria faberi (SETFA) [8]; rate 250 g/ha): 5 (5=81-100%); Post-Emergence Test IPHOE percentage damage (five-point scale) ([9]; rate 250 g/ha): 4 (4=61-80%); Post-Emergence Test AMARE percentage damage (five-point scale) ([10]; rate 250 g/ha): 4 (4=61-80%); Post-Emergence Test AMAPA percentage damage (five-point scale) ([11]; rate 250 g/ha): 4 (4=61-80%); Post-Emergence Test ZEAMX percentage damage (five-point scale) (Zea mays (ZEAMX) [12]; rate 250 g/ha): 2 (2=21-40%) |
| CCn1c(Oc2ccc(F)c(F)c2)cc(=O)c(C(=O)O)c1-c1ccc(Cl)c(Cl)c1 [Compound 28, 2-(3,4-dichlorophenyl)-6-(3,4-difluorophenoxy)-1-ethyl-4-oxo-pyridine-3-carboxylic acid] | 4 (4=61-80%) | 5 (5=81-100%) | 4 (4=61-80%) | 5 (5=81-100%) | 4 (4=61-80%) | 4 (4=61-80%) | 4 (4=61-80%) | 4 (4=61-80%) | 3 (3=41-60%) | 4 (4=61-80%) | 4 (4=61-80%) | 4 (4=61-80%) | – |
| CCn1c(Oc2cc(F)ccc2Cl)cc(=O)c(C(=O)O)c1-c1ccc(Cl)c(Cl)c1 [Compound 35, 6-(2-chloro-5-fluoro-phenoxy)-2-(3,4-dichlorophenyl)-1-ethyl-4-oxo-pyridine-3-carboxylic acid] | 1 (1=0-20%) | 1 (1=0-20%) | 0 | 5 (5=81-100%) | 5 (5=81-100%) | 0 | 4 (4=61-80%) | 4 (4=61-80%) | 2 (2=21-40%) | 3 (3=41-60%) | 3 (3=41-60%) | 2 (2=21-40%) | – |
| CCn1c(Oc2ccn(C)n2)cc(=O)c(C(=O)O)c1-c1ccc(Cl)c(Cl)c1 [Compound 37, 2-(3,4-dichlorophenyl)-1-ethyl-6-(1-methylpyrazol-3-yl)oxo-4-oxo-pyridine-3-carboxylic acid] | – | – | – | – | – | – | – | – | – | – | – | – | percentage damage caused to the plant, ZEAMX (Zea mays (ZEAMX) [1]; rate 62.5 g/ha): 3 (3=41-60%); percentage damage caused to the plant, AMARE ([2]; rate 62.5 g/ha): 2 (2=21-40%); percentage damage caused to the plant, AMAPA ([3]; rate 62.5 g/ha): 2 (2=21-40%); percentage damage caused to the plant, SETFA (Setaria faberi (SETFA) [4]; rate 62.5 g/ha): 5 (5=81-100%); percentage damage caused to the plant, ECHCG ([5]; rate 62.5 g/ha): 4 (4=61-80%); percentage damage caused to the plant, IPHOE ([6]; rate 62.5 g/ha): 3 (3=41-60%); Post-Emergence Test ECHCG percentage damage (five-point scale) ([7]; rate 62.5 g/ha): 4 (4=61-80%); Post-Emergence Test SETFA percentage damage (five-point scale) (Setaria faberi (SETFA) [8]; rate 62.5 g/ha): 4 (4=61-80%); Post-Emergence Test IPHOE percentage damage (five-point scale) ([9]; rate 62.5 g/ha): 3 (3=41-60%); Post-Emergence Test AMARE percentage damage (five-point scale) ([10]; rate 62.5 g/ha): 4 (4=61-80%); Post-Emergence Test AMAPA percentage damage (five-point scale) ([11]; rate 62.5 g/ha): 4 (4=61-80%); Post-Emergence Test ZEAMX percentage damage (five-point scale) (Zea mays (ZEAMX) [12]; rate 62.5 g/ha): 4 (4=61-80%) |
| CCn1c(Oc2ccc(Cl)cn2)cc(=O)c(C(=O)O)c1-c1ccc(Cl)c(Cl)c1 [Compound 38, 6-[(5-chloro-2-pyridyl)oxy]-2-(3,4-dichlorophenyl)-1-ethyl-4-oxo-pyridine-3-carboxylic acid] | – | – | – | – | – | – | – | – | – | – | – | – | percentage damage caused to the plant, ZEAMX (Zea mays (ZEAMX) [1]; rate 250 g/ha): 4 (4=61-80%); percentage damage caused to the plant, AMARE ([2]; rate 250 g/ha): 3 (3=41-60%); percentage damage caused to the plant, AMAPA ([3]; rate 250 g/ha): 2 (2=21-40%); percentage damage caused to the plant, SETFA (Setaria faberi (SETFA) [4]; rate 250 g/ha): 5 (5=81-100%); percentage damage caused to the plant, ECHCG ([5]; rate 250 g/ha): 5 (5=81-100%); percentage damage caused to the plant, IPHOE ([6]; rate 250 g/ha): 4 (4=61-80%); Post-Emergence Test ECHCG percentage damage (five-point scale) ([7]; rate 250 g/ha): 3 (3=41-60%); Post-Emergence Test SETFA percentage damage (five-point scale) (Setaria faberi (SETFA) [8]; rate 250 g/ha): 4 (4=61-80%); Post-Emergence Test IPHOE percentage damage (five-point scale) ([9]; rate 250 g/ha): 4 (4=61-80%); Post-Emergence Test AMARE percentage damage (five-point scale) ([10]; rate 250 g/ha): 4 (4=61-80%); Post-Emergence Test AMAPA percentage damage (five-point scale) ([11]; rate 250 g/ha): 4 (4=61-80%); Post-Emergence Test ZEAMX percentage damage (five-point scale) (Zea mays (ZEAMX) [12]; rate 250 g/ha): 4 (4=61-80%) |
